Assay results as given in patent US20060121083A1 (priority 2003, published 2006).
≈ marks a conversion by molar mass, not a printed value. Read-outs that look alike come from different tables or passages of the source. Ends that are not written are not given here.

Legend:
[1] = system: Methicillin-resistant S. aureus ATCC 43300; assay: MIC by microbroth dilution method, MRSA; format: cell-based; details: broth-micro dilution
Protocol: (§1) Bacterial strains: Methicillin-resistant S. aureus (abbreviated […]) ATCC 43300 was commercially purchased from Oxoid S.p.A., Milan, Italy. Methicillin-resistant S. epidermidis (abbreviated MRSE) is a clinical strain from the Institute of Infectious Diseases and Public Health, University of Ancona, Italy.
(§2) Bacterial strain antibiotic suscepdbilty analysis: The antimicrobial susceptibilities of the bacterial strains were determined by using the microbroth dilution method, according to the procedures outlined by the National Committee for Clinical Laboratory Standards (U.S.A.). The minimal inhibitory concentration (MIC) was taken as the lowest antibiotic concentration at which observable growth was inhibited. Experiments were performed in triplicate.
(§3) Statistical analysis: MIC values are presented as the geometric mean of three separate experiments. […] Significance was accepted when the P value was less than/equal to 0.05.

[2] = system: Methicillin-resistant S. epidermidis clinical strain; assay: MIC by microbroth dilution method, MRSE; format: cell-based; details: broth-micro dilution
Protocol: as §1, §2, §3

[3] = system: methicillin-resistant S. aureus (MRSA); format: in vivo; details: rats, MRSA challenge
Text: (§4) Animals: Adult male Wistar rats, 250-300 gr (I.N.R.C.A. I.R.R.C.S. animal facility, Ancona) were used, with 15 animals per experimental group.
(§5) Mammalian graft infection model: Rats were anesthetized and their hair of the back was shaved and the skin cleansed with 10 percent povidone-iodine solution. One subcutaneous pocket was made on each side of the median line by a 1.5 cm incision. Aseptically, 1 square centimeter sterile albumin-sealed Dacron™ grafts (Albograft™, Sorin Biomedica Cardio, S.p.A., Saluggia VC, Italy) were implanted into the pockets. Prior to implantation grafts were soaked for 20 minutes in sterile antibiotic solutions. The pockets were closed by means of skin clips and saline solution (1 mL) containing methicillin-resistant S. aureus (MRSA) or S. epidermidis (MRSE) at a concentration of 2×10^7 colony-forming units (CFU)/mL was inoculated onto the graft surface by using a tuberculin syringe to create a subcutaneous fluid-filled pocket. The animals were returned to individual cages and thoroughly examined daily. All grafts were explanted at 7 days following implantation.
(§6) Assessment of the infection: The explanted grafts were placed in sterile tubes, washed in sterile saline solution, placed in tubes containing 10 mL of phosphate-buffered saline solution and sonicated for 5 minutes to remove the adherent bacteria from the grafts (Balaban, N. et al, 2003. Kidney Int. 63: 340-345). Quantitation of viable staphylococci was performed by culturing serial dilutions (0.1 mL) of the bacterial suspensions on blood agar plates at 37 degrees centigrade for 48 hours. The organisms were quantitated by counting the number of colony-forming units (CFUs) per plate. The limit of detection for this method was approximately 10 CFU/mL.
as §3

[4] = system: methicillin-resistant S. epidermidis (MRSE); format: in vivo; details: rats, MRSE challenge
Text: as §4, §5, §6, §3

[5] = system: S. aureus cells; assay: Bacterial growth (CFU) of S. aureus culture grown with peptides; format: cell-based; details: in-vitro culture grown 2.5 hours with peptide, FIG. 5a
Protocol: (§7) RNAIII synthesis and bacterial growth: Cultures of S. aureus (20 million cells in a volume of 30 microliters) containing an expression construct for expression of the fusion protein maiii::blaZ (described in Gov, Y. et al., 2001. Peptides. 22: 1609-20 were grown for 2.5 hours with 5 microliters peptide solution or control buffer. A 5 microliter sample was taken from the cultures, diluted in saline, and streaked on LB agar plates to quantitate CFUs. The remainder of the cultures were used to determine RNAIII synthesis (beta-lactamase activity). This was performed by adding a substrate of beta-lactamase (nitrocefin), and determining OD 490 nm/OD 650 nm, as previously described (Gov, Y. et al., 2001. Peptides. 22: 1609-20).

[6] = system: RNAIII synthesis; assay: RNAIII synthesis (beta-lactamase reporter, nitrocefin); format: cell-based, S. aureus; details: FIG. 5b; at high peptide concentrations mostly attributable to cell death
Protocol: as §7

[7] = graft presoaked in 10 micrograms/mL peptide, explanted at 7 days
[8] = graft presoaked in 20 micrograms/mL peptide, explanted at 7 days
[9] = graft presoaked in 50 micrograms/mL peptide, explanted at 7 days
[10] = graft pre-soaked with 5 micrograms/mL rifampin alone
[11] = graft pre-soaked with 5 micrograms/mL rifampin alone, 7 days

Compound: YSPWTNF (YSPWTNF-NH2) [RIP]
- MIC [1]: > 128 micrograms/mL
- MIC [2]: > 128 micrograms/mL
- Graft bacterial load (quantitative culture) [3, 7]: 4.1×10^4±7.1×10^3 CFU/ml
- Graft bacterial load (quantitative culture) [3, 8]: 5.9×10^3±1.7×10^3 CFU/ml
- Graft bacterial load (quantitative culture) [3, 9]: 8.4×10^1±3.6×10^1 CFU/ml
- Graft bacterial load (quantitative culture) [4, 7]: 6.9×10^3±1.9×10^3 CFU/ml
- Graft bacterial load (quantitative culture) [4, 8]: 8.5×10^2±2.0×10^2 CFU/ml
- Graft bacterial load (quantitative culture) [4, 9]: 3.9×10^1±1.6×10^1 CFU/ml
- Bactericidal activity (CFU counts) [5]: virtually inactive
- Inhibition of RNAIII synthesis [6]: efficiently inhibited RNAIII synthesis

Compound: CO[C@H]1/C=C/O[C@@]2(C)Oc3c(C)c(O)c4c(O)c(c(/C=N/N5CCN(C)CC5)c(O)c4c3C2=O)NC(=O)/C(C)=C\C=C\[C@H](C)[C@H](O)[C@@H](C)[C@@H](O)[C@@H](C)[C@H](OC(C)=O)[C@@H]1C [rifampin]
- MIC ([1]; Staphylococcus aureus, read-out: MIC): 0.5 µg/mL (≈ 0.608 µM)
- MIC ([2]; Staphylococcus epidermidis, read-out: MIC): 0.5 µg/mL (≈ 0.608 µM)
- Reduction in bacterial CFU compared to control [3, 10]: about 50%
- Graft bacterial load (quantitative culture) [3, 11]: 6.7×10^3±9.1×10^2 CFU/mL
- Reduction in numbers of PFUs compared to control [4, 10]: about 50%
- Graft bacterial load (quantitative culture) [4, 11]: 8.8×10^2±3.0×10^2 CFU/mL
